# Experimental data: ChEMBL document CHEMBL1148587, “Imidazo[1,2-a]pyrimidines as functionally selective and orally bioavailable GABA(A)alpha2/alpha3 binding site agonists for the treatment of anxiety disorders” (J Med Chem, 2006)
# Activity calls are given as the source filed them. No cut-off for these calls is given here.
# Columns and labels:
# [1] = target: T1, GABA-A receptor; alpha-1/beta-3/gamma-2 (Homo sapiens, UniProt P14867+P18507+P28472); test: Displacement of [3H]-Ro15-1788 from human recombinant GABAA alpha1 in combination with beta-3-gamma-2 expressed in L(tk-) cells; type: cell-based
# T1 sequence (P14867 whole entry): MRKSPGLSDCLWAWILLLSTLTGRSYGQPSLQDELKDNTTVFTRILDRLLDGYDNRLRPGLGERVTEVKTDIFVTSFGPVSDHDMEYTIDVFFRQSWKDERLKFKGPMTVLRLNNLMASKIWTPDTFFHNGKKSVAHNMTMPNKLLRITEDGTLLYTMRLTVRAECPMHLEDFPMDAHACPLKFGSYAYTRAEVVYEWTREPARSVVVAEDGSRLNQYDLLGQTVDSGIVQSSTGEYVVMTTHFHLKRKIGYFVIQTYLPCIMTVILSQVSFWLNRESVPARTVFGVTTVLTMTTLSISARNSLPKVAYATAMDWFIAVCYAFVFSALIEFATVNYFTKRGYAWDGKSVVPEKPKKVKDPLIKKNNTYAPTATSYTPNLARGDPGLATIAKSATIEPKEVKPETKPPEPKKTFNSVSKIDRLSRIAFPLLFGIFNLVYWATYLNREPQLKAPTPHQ
# T1 sequence (P18507 whole entry): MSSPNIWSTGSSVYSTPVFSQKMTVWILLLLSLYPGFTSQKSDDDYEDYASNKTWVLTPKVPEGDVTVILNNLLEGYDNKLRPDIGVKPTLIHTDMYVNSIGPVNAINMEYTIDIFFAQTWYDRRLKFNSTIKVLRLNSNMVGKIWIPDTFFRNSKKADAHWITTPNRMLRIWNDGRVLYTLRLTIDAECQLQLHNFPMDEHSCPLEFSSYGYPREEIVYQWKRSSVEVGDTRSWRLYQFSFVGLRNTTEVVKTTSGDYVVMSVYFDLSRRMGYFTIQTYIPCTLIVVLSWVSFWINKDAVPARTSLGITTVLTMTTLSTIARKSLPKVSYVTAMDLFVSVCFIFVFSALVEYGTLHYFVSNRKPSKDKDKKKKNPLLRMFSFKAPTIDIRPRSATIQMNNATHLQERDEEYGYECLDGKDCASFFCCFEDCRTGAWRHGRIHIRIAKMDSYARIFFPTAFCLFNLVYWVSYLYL
# T1 sequence (P28472 whole entry): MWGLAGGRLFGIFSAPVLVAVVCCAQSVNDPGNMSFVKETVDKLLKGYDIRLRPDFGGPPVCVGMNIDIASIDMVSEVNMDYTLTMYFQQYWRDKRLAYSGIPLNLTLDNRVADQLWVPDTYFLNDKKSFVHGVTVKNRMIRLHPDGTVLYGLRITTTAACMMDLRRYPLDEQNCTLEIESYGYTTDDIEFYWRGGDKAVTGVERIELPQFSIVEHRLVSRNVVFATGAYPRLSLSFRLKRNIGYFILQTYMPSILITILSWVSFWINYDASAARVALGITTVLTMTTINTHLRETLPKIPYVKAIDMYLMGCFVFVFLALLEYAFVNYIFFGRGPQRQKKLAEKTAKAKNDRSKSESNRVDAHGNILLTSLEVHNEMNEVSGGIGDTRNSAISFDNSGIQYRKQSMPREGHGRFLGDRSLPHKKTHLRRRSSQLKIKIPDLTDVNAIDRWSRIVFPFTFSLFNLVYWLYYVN
# [2] = target: T2, GABA-A receptor; alpha-2/beta-3/gamma-2 (Homo sapiens, UniProt P18507+P28472+P47869); test: Displacement of [3H]-Ro15-1788 from human recombinant GABAA alpha2 in combination with beta3gamma2 expressed in L(tk-) cells; type: cell-based
# T2 sequence (P18507 whole entry): T1 sequence (P18507 whole entry)
# T2 sequence (P28472 whole entry): T1 sequence (P28472 whole entry)
# T2 sequence (P47869 whole entry): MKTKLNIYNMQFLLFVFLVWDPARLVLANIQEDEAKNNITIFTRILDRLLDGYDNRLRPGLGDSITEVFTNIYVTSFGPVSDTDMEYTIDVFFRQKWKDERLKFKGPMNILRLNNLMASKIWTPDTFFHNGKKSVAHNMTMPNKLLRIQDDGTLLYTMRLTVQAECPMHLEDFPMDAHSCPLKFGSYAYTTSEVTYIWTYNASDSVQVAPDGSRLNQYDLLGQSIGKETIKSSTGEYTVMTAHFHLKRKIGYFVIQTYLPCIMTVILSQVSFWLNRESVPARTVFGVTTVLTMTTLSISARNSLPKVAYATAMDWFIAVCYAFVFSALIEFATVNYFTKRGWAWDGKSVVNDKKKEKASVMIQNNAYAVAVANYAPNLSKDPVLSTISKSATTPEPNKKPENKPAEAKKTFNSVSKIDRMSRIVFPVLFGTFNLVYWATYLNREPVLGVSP
# [3] = target: T3, GABA-A receptor; alpha-3/beta-3/gamma-2 (Homo sapiens, UniProt P18507+P28472+P34903); test: Displacement of [3H]Ro-151788 from human recombinant GABAA alpha3 in combination with beta3gamma2 expressed in L(tk-) cells; type: cell-based
# T3 sequence (P18507 whole entry): T1 sequence (P18507 whole entry)
# T3 sequence (P28472 whole entry): T1 sequence (P28472 whole entry)
# T3 sequence (P34903 whole entry): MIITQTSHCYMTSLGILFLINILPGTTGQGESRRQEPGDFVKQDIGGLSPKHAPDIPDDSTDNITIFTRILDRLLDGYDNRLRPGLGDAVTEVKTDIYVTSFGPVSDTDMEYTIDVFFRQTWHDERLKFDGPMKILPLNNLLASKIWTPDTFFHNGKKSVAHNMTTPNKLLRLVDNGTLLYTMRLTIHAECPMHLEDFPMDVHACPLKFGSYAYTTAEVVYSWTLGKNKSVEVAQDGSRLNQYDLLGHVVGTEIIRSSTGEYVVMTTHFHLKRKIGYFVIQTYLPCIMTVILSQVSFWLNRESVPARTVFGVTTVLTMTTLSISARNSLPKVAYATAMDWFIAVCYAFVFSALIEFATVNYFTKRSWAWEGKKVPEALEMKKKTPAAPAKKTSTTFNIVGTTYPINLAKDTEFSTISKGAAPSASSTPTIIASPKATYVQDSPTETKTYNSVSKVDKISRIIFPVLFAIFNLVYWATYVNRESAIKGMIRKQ
# [4] = target: T4, GABA-A receptor; alpha-5/beta-3/gamma-2 (Homo sapiens, UniProt P18507+P28472+P31644); test: Displacement of [3H]Ro-151788 from human recombinant GABAA alpha5 in combination with beta3gamma2 expressed in L(tk-) cells; type: cell-based
# T4 sequence (P18507 whole entry): T1 sequence (P18507 whole entry)
# T4 sequence (P28472 whole entry): T1 sequence (P28472 whole entry)
# T4 sequence (P31644 whole entry): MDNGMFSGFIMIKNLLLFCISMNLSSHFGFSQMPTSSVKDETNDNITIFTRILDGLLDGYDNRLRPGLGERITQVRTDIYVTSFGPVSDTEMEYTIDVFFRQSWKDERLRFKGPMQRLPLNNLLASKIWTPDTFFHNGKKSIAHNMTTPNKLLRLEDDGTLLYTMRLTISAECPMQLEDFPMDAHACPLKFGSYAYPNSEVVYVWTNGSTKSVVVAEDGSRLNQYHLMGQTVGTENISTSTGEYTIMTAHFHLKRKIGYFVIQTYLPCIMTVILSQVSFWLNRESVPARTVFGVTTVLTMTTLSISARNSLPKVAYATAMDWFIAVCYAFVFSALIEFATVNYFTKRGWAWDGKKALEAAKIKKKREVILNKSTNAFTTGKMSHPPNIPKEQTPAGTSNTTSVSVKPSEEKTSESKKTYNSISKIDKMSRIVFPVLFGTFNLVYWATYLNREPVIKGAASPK
# Rattus norvegicus = test: Activity in rat elevated plus maze assay at 5 mg/kg, ip; type: functional, organism-based; design: dose 5 mg/kg
# [5] = target: T5, GABA-A receptor; alpha-1/beta-3/gamma-2 (Homo sapiens) (UniProt P14867+P18507+P28472); test: Efficacy against human recombinant GABAA alpha-1 in combination with beta3gamma2 expressed in L(tk-) cells by whole cell patch clamp method; type: functional, cell-based
# [6] = target: T6, GABA-A receptor; alpha-3/beta-3/gamma-2 (Homo sapiens) (UniProt P18507+P28472+P34903); test: Efficacy against human recombinant GABAA alpha3 in combination with beta-3-gamma-2 expressed in L(tk-) cells by whole cell patch clamp method; type: functional, cell-based
# [7] = target: GABA-A receptor; alpha-5/beta-3/gamma-2 (Homo sapiens) (UniProt P18507+P28472+P31644); test: Efficacy against human recombinant GABAA alpha5 in combination with beta3gamma2 expressed in L(tk-) cells by whole cell patch clamp method; type: functional, cell-based
# [8] = Oral bioavailability in rat; type: ADME, organism-based; details: in vivo
# [9] = Plasma clearance in rat; type: ADME, organism-based
# [10] = target: T6, GABA-A receptor; alpha-3/beta-3/gamma-2 (Homo sapiens); test: Efficacy against human recombinant GABAA alpha3 in combination with beta-3-gamma-2 expressed in L(tk-) cells by 36Cl ion flux modulation; type: functional, cell-based
# [11] = target: T5, GABA-A receptor; alpha-1/beta-3/gamma-2 (Homo sapiens); test: Efficacy against human recombinant GABAA alpha1 in combination with beta3gamma2 expressed in L(tk-) cells by 36Cl ion flux modulation; type: functional, cell-based
# [12] = Oral bioavailability in dog; type: ADME, organism-based, Canis lupus familiaris; details: in vivo
# [13] = Plasma clearance in dog; type: ADME, organism-based, Canis lupus familiaris
smiles,measurement,setting,value
CCn1ncnc1COc1nn2c(-c3ccccc3F)nnc2cc1C(C)(C)C [MK-0777],Ki,[1],0.26 nM
same,Ki,[2],0.3 nM
same,Ki,[3],0.3 nM
same,Ki,[4],0.2 nM
CNC1=Nc2ccc(Cl)cc2C(c2ccccc2)=[N+]([O-])C1,Activity,Rattus norvegicus,Active
c1ccc(-c2nnc3c4c(c(OCc5ccccn5)nn23)C2CCC4CC2)cc1,Ki,[1],56 nM
same,Ki,[2],21.7 nM
same,Ki,[3],10 nM
same,Ki,[4],1 nM
same,Efficacy,[5],32%
same,Efficacy,[6],45.6%
N#Cc1ccc(F)cc1-c1cc(-c2cnc3nc(C(F)(F)F)ccn23)ccc1F,Ki,[1],0.65 nM
same,Ki,[3],0.62 nM
same,Ki,[4],0.26 nM
same,Efficacy,[5],34%
N#Cc1cccc(F)c1-c1cc(-c2cnc3nc(C(F)(F)F)ccn23)ccc1F,Ki,[1],0.87 nM
same,Ki,[3],0.38 nM
same,Ki,[4],0.5 nM
same,Efficacy,[5],8%
same,Efficacy,[6],33%
CCO/N=C(\C)c1ccc2c(c1)ncn2-c1cccc(-c2cccnc2)c1,Ki,[1],1.5 nM
same,Ki,[2],13.1 nM
same,Ki,[3],9.2 nM
same,Ki,[4],1.6 nM
same,Efficacy,[5],42%
same,Efficacy,[6],127%
same,Efficacy,[7],26%
Cc1ccn2c(-c3cccc(-c4ccccc4C#N)c3)cnc2c1,bioavailability,[8],2%
same,clearance,[9],44 mL/min/kg
same,Ki,[1],4.5 nM
same,Ki,[3],3.6 nM
same,Ki,[4],1.2 nM
same,Efficacy,[5],-10%
same,Efficacy,[6],57%
same,Efficacy,[7],-14.6%
Cc1ccn2c(-c3cccc(-c4cccnc4)c3)cnc2c1,Efficacy,[10],9%
same,Ki,[3],16 nM
same,Efficacy,[11],-15%
N#Cc1ccccc1-c1cccc(-c2cnc3nc(C(F)(F)F)ccn23)c1,Ki,[1],0.66 nM
same,Ki,[3],0.33 nM
same,Ki,[4],0.21 nM
same,Efficacy,[5],20%
same,Efficacy,[6],69%
Cn1cnc(COc2nn3c(-c4ccccc4)nnc3c3c2C2CCC3CC2)n1,Efficacy,[5],34%
same,Efficacy,[6],55%
N#Cc1ccccc1-c1cc(F)cc(-c2cnc3nc(C(F)(F)F)ccn23)c1,Efficacy,[10],18%
same,Ki,[1],5.3 nM
same,Ki,[3],14 nM
same,Ki,[4],1.6 nM
same,Efficacy,[11],4%
N#Cc1ccccc1-c1cc(-c2cnc3nc(C(F)(F)F)ccn23)ccc1F,Ki,[1],0.5 nM
same,Ki,[2],0.52 nM
same,Ki,[3],0.34 nM
same,Ki,[4],0.2 nM
same,Efficacy,[5],12.4%
same,Efficacy,[6],43%
same,Efficacy,[7],14%
N#Cc1ccccc1-c1cccc(-c2cnc3nc(C(F)(F)F)ccn23)c1F,Ki,[1],2.7 nM
same,Ki,[3],2.6 nM
same,Ki,[4],0.94 nM
same,Efficacy,[5],2%
same,Efficacy,[6],43%
same,Efficacy,[7],18%
Cn1ncnc1COc1nn2c(-c3cc(F)ccc3F)nnc2cc1C(C)(C)C,Ki,[1],0.8 nM
same,Ki,[2],0.7 nM
same,Ki,[3],0.7 nM
same,Ki,[4],2.3 nM
same,Efficacy,[5],2%
same,Efficacy,[6],43%
same,Efficacy,[7],39%
Cc1ccn2c(-c3cccc(-c4ccccc4C#N)c3)cnc2n1,bioavailability,[8],42%
same,clearance,[9],13 mL/min/kg
same,bioavailability,[12],< 5%
same,clearance,[13],41 mL/min/kg
same,Ki,[1],0.39 nM
same,Ki,[2],0.78 nM
same,Ki,[3],0.37 nM
same,Ki,[4],0.12 nM
same,Efficacy,[5],7%
same,Efficacy,[6],81%
same,Efficacy,[7],1%
CC(C)(O)c1ccn2c(-c3ccc(F)c(-c4ccc(F)cc4C#N)c3)cnc2n1,Efficacy,[10],45%
same,Ki,[1],2.7 nM
same,Ki,[2],3.3 nM
same,Ki,[3],1.3 nM
same,Ki,[4],0.1 nM
same,Efficacy,[11],45%
N#Cc1c(F)cccc1-c1cc(-c2cnc3nc(C(F)(F)F)ccn23)ccc1F,Efficacy,[10],56%
same,Ki,[1],4.6 nM
same,Ki,[3],7.6 nM
same,Ki,[4],2.8 nM
same,Efficacy,[11],31%
